From paper PMC11911254 (Pharmacological Reports, 2025)

Assay: Concentration of paracetamol and its metabolites in plasma, CSF and brain cortex by LC-MS/MS
Conditions: for Concentration in CSF / Concentration in brain / Concentration in plasma: E19 rats; for concentration at 30 min: both, Sprague Dawley, rat, intraperitoneal, P4 rats
Experimental: Drug injection protocol is illustrated in Fig. 1.
Male and female postnatal P4 pups and 7–8 week-old non-pregnant females were used. […] In combination therapy experiments, this dose was accompanied by one of the 7 other drugs (Table 1). For all experiments, animals were terminally anesthetized 30 min after the drug injection using inhaled isoflurane (IsoFlo 100% w/w, Abbott Laboratories), and blood, CSF, and brain samples were collected. Blood was collected directly from the right cardiac ventricle, CSF from the cisterna magna, and cortical brain samples from the frontal/parietal lobes dorsal to the lateral ventricles as described previously.
Pregnant E19 dams were anesthetized with ip urethane injection (25% w/v urethane, Sigma, 1 ml/100 g body weight) and placed on a 39 °C heating pad in the supine position. An endotracheal catheter was inserted to maintain a clear airway. Catheters were inserted into the femoral vein and artery for iv drug administration and arterial blood sampling respectively. The cannula was flushed with 0.5 ml of heparinized saline (Hospira Inc, 5,000 units/ml) after drug administration and following each arterial blood sample. Following drug administration to the dams, fetuses were exteriorized and serially collected starting at 30 min post-maternal injection. […] At collection, the viability of each fetus was assessed (presence of a heartbeat, the colour of the umbilical vessels) and blood, CSF, and brain samples were taken along with a time-matched maternal blood sample from the femoral artery. At the end of the experiment, a final maternal blood sample was taken directly from the left cardiac ventricle, and CSF and brain samples were collected.
This method has been described previously for valproate, lamotrigine, and olanzapine and was applied in the present study. Simultaneous quantification was performed for all compounds in plasma, brain, and CSF samples following the addition of respective stable isotope-labeled internal standards.
Linear response range was determined in untreated control rat plasma for each compound at 0.1, 1, 10, 50, 100, 200, 400, and 800 µg/ml.

[1] = maternal iv paracetamol 15 mg/kg + cimetidine 11 mg/kg (PARA+CIM, n=10), median (IQR)
[2] = maternal iv paracetamol 15 mg/kg + digoxin 0.03 mg/kg (PARA+DIG, n=9), median (IQR)
[3] = maternal iv paracetamol 15 mg/kg + lamotrigine 6 mg/kg (PARA+LTG, n=10), median (IQR)
[4] = maternal iv paracetamol 15 mg/kg + olanzapine 0.15 mg/kg (PARA+OLZ, n=10), median (IQR), all values if <3 detected
[5] = maternal iv paracetamol 15 mg/kg + valproate 30 mg/kg (PARA+VPA, n=10), median (IQR), all values if <3 detected
[6] = maternal iv paracetamol 15 mg/kg monotherapy (PARA, n=10), median (IQR)

- Concentration in CSF [1]: 7.2 (1.7) µg/ml
- Concentration in brain [1]: 10.2 (5.7) µg/ml
- Concentration in plasma [1]: 7.6 (2.5) µg/ml
- Concentration in CSF [2]: 6.5 (2.2) µg/ml
- Concentration in brain [2]: 6.6 (3.0) µg/ml
- Concentration in plasma [2]: 5.8 (2.2) µg/ml
- Concentration in CSF [3]: 6.3 (3.4) µg/ml
- Concentration in brain [3]: 8 (2.6) µg/ml
- Concentration in plasma [3]: 6.2 (3.7) µg/ml
- Concentration in plasma (maternal iv paracetamol 15 mg/kg + olanzapine 0.15 mg/kg (PARA+OLZ, n=10), median (IQR)): 4.1 (3.7) µg/ml
- Concentration in CSF [4]: 4.7 (4.0) µg/ml
- Concentration in brain [4]: 8.7 (3.9) µg/ml
- Concentration in plasma (maternal iv paracetamol 15 mg/kg + olanzapine 0.15 mg/kg (PARA+OLZ, n=10), median (IQR), listed as paracetamol): 4.1 µg/mL
- Concentration in CSF (maternal iv paracetamol 15 mg/kg + valproate 30 mg/kg (PARA+VPA, n=10), median (IQR)): 5.9 (2.1) µg/ml
- Concentration in brain [5]: 6.9 (2.1) µg/ml
- Concentration in plasma [5]: 6.0 (2.5) µg/ml
- Concentration in CSF [6]: 8.0 (3.2) µg/ml
- Concentration in brain [6]: 9.3 (5.0) µg/ml
- Concentration in plasma [6]: 7.5 (2.9) µg/ml
- Concentration in plasma (maternal iv paracetamol 15 mg/kg monotherapy (PARA, n=10), median (IQR), listed as paracetamol): 7.5 µg/mL
- change in plasma concentration following combination therapy (adults, any of the drugs investigated, Kruskal-Wallis test): no significant changes
- concentration at 30 min (CSF, 15 mg/kg, Concentration in CSF, 30 min after ip paracetamol 15 mg/kg monotherapy (PARA, n=4), median (IQR)): 7000 ng/mL
- concentration at 30 min (CSF, Concentration in CSF, 30 min after ip paracetamol 15 mg/kg + cimetidine 11 mg/kg (PARA+CIM, n=4), median (IQR)): 6200 ng/mL
- concentration at 30 min (CSF, Concentration in CSF, 30 min after ip paracetamol 15 mg/kg + digoxin 0.03 mg/kg (PARA+DIG, n=4), median (IQR)): 6300 ng/mL
- concentration at 30 min (CSF, Concentration in CSF, 30 min after ip paracetamol 15 mg/kg + fluvoxamine 1.5 mg/kg (PARA+FLX, n=4), median (IQR)): 9400 ng/mL
- concentration at 30 min (CSF, Concentration in CSF, 30 min after ip paracetamol 15 mg/kg + lamotrigine 6 mg/kg (PARA+LTG, n=5), median (IQR)): 7200 ng/mL
- concentration at 30 min (CSF, Concentration in CSF, 30 min after ip paracetamol 15 mg/kg + lithium 3.2 mg/kg (PARA+Li, n=4), median (IQR)): 4700 ng/mL
- concentration at 30 min (CSF, Concentration in CSF, 30 min after ip paracetamol 15 mg/kg + olanzapine 0.15 mg/kg (PARA+OLZ, n=4), median (IQR)): 5300 ng/mL
- concentration at 30 min (CSF, Concentration in CSF, 30 min after ip paracetamol 15 mg/kg + valproate 30 mg/kg (PARA+VPA, n=4), median (IQR)): 6400 ng/mL
- concentration at 30 min (brain cortex, 15 mg/kg, Concentration in brain, 30 min after ip paracetamol 15 mg/kg monotherapy (PARA, n=4), median (IQR)): 8900 ng/mL
- concentration at 30 min (brain cortex, Concentration in brain, 30 min after ip paracetamol 15 mg/kg + cimetidine 11 mg/kg (PARA+CIM, n=4), median (IQR)): 9000 ng/mL
- concentration at 30 min (brain cortex, Concentration in brain, 30 min after ip paracetamol 15 mg/kg + digoxin 0.03 mg/kg (PARA+DIG, n=4), median (IQR)): 10300 ng/mL
- concentration at 30 min (brain cortex, Concentration in brain, 30 min after ip paracetamol 15 mg/kg + fluvoxamine 1.5 mg/kg (PARA+FLX, n=4), median (IQR) or individual values): 8700 ng/mL
- concentration at 30 min (brain cortex, Concentration in brain, 30 min after ip paracetamol 15 mg/kg + lamotrigine 6 mg/kg (PARA+LTG, n=5), median (IQR)): 9900 ng/mL
- concentration at 30 min (brain cortex, Concentration in brain, 30 min after ip paracetamol 15 mg/kg + lithium 3.2 mg/kg (PARA+Li, n=4), median (IQR)): 7600 ng/mL
- concentration at 30 min (brain cortex, Concentration in brain, 30 min after ip paracetamol 15 mg/kg + olanzapine 0.15 mg/kg (PARA+OLZ, n=4), median (IQR)): 6900 ng/mL
SMILES: CC(=O)Nc1ccc(O)cc1 [Paracetamol, reference compound]
